Measured values reported in patent US20180369203A1, “METHODS OF TREATING CANCER BY ADMINISTERING A MEK INHIBITOR IN COMBINATION WITH A PROTEASOME INHIBITOR” (The Jackson Laboratory, priority 2015, published 2018).
Read-outs that look alike come from different tables or passages of the source. Peptide text beside a SMILES is read from it. * marks the point of attachment. Cbz = O=C(OCc1ccccc1)*

Legend:
[1] = test system: V5-TOR1AIP2, V5-RPL3, V5-RPL15; assay: Levels and ubiquitination of V5-tagged proteins in HEK293T cells; assay type: cell-based; details: 500 nM MG132 co-treated with 20 nM AZD6244, 8 hr
c-MYC, RPL15, RPL3 = assay: Endogenous c-MYC, RPL15 and RPL3 proteins in A2058 cells; assay type: cell-based, human; details: 20 nM AZD6244 co-treated with 500 nM MG132
Description: (A) GFP and GFP-GR plasmids were co-transfected into HEK293T cells followed by treatments with 20 nM AZD6244, 20 μM U0126, or 200 nM 17-DMAG for 4 hr. (B) GFP-GR plasmids were co-transfected into HEK293T cells with HA-Ub-K48 plasmids, which encode a mutant ubiquitin that can be conjugated to protein substrates only via lysine 48. Following treatments with 20 nM AZD6244 or 200 nM 17-DMAG for 4 hr, GFP-GR proteins were precipitated and ubiquitination was detected using anti-HA antibodies. (C) Denatured firefly luciferases were incubated with lysates of A2058 cells treated with DMSO or 20 nM AZD6244 (mean±SD, n=4, ANOVA). (D) A2058 cells were treated with 20 nM AZD6244, and ubiquitinated proteins were detected in both detergent-soluble and -insoluble fractions using Lys48-specific ubiquitin antibodies. (E) A2058 cells stably expressing LacZ or HSF1^S326D were treated with 20 nM AZD6244 for 8 hr. (F) C57BL/6J mice were i.p. injected with DMSO or AZD6244 three times a week for 2 weeks. S: spleen; K: kidney; L: liver. (G) Experimental procedures of MS-based quantitation of ubiquitinated peptides, two technical replicates per treatment. […] (Q) Endogenous RPL15 and RPL3 proteins were detected in A2058 cells treated with 20 nM AZD6244 alone or co-treated with 500 nM MG132. (R) Endogenous RPL15 and RPL3 proteins were detected in A2058 cells stably expressing LacZ or HSF1^S326D with AZD6244 treatment. […]

HSF1 Ser326 [2] = details: NIH3T3; 20 μM U0126 for 3 hrs, then heat shock 43° C. 30 mins
Description: NIH3T3 cells were treated with 20 μM U0126 for 3 hrs followed by heat shock at 43° C. for 30 mins HSF1 Ser326 phosphorylation was detected by immunoblotting.
Whole-cell protein extracts were prepared in cold cell-lysis buffer (100 mM NaCl, 30 mM Tris-HCl pH 7.6, 1% Triton X-100, 30 mM NaF, 1 mM EDTA, 1 mM sodium orthovanadate, and Halt™ protease inhibitor cocktail from Thermo Scientific). Proteins were separated on SDS-PAGE gels and transferred to nitrocellulose membranes. Primary antibodies were applied in wash buffer overnight at 4° C. Peroxidase-conjugated secondary antibodies were applied at room temperature for 1 hr, and signals were visualized by SuperSignal West chemiluminescent substrate (Thermo Fisher Scientific), followed by exposure to films.

HSF1 [3] = assay: Dual HSF1 reporter assay (HSE-SEAP / CMV-GLuc) in HEK293T cells; assay type: cell-based; details: 20 μM U0126, 20 nM AZD6244, 1 μM FR180204 or 100 nM Sch772984
Description: (A) NIH3T3 cells were treated with HS at 43° C. for 30 min, 10 μM tubastatin A for 5 hr, 40 μM VER155008 for 1 hr, 500 nM MG132 for 1 hr, 200 nM 17-DMAG for 1 hr, and 2.5 mM azetidine for 15 min (B) The dual ELK1 reporter system, comprising a serum response element (SRE)-driven secreted embryonic alkaline phosphatase (SEAP) plasmid and a CMV-driven Gaussia luciferase (GLuc) plasmid, was transfected into HEK293T cells. After 24 hr, cells were treatments as in (A) and recovered overnight before measuring reporter activities (mean±SD, n=6, ANOVA). (C and D) NIH3T3 cells were treated with 20 μM U0126 or 20 nM AZD6244 for 3 hr followed by HS and 4-hr recovery. mRNA levels were quantitated by qRT-PCR (mean±SD, n=3, Student's t-test). (E) Immediately after HS, nuclear proteins of NIH3T3 cells treated as in (C) were extracted to measure HSF1-DNA binding by an ELISA-based assay (mean±SD, n=3, ANOVA). (F) HEK293T cells were transfected with dual HSF1 reporter plasmids, a heat-shock element (HSE)-driven SEAP plasmid and a CMV-GLuc plasmid. […] (G) HEK293T cells were treated with different inhibitors overnight. […] After 24 hr, cells were heat shocked at 43° C. for 30 min followed by overnight recovery (mean±SD, n=3, ANOVA). […]
FIGS. 8A-H illustrate that MEK and ERK inversely regulate the PSR. […] Cell viability was measured by a Guava EasyCyte™ flow cytometer using Guava ViaCount™ reagents (mean±SD, n=5, Student's t test). […] Levels of ERK1 and ERK2 mRNAs were quantitated in HEK293T cells transfected with ERK1-targeting siRNAs by qRT-PCR (mean±SD, n=3, ANOVA). […] Levels of ERK2 and ERK1 mRNAs were quantitated in HEK293T cells transfected with ERK2-targeting siRNAs by qRT-PCR (mean±SD, n=3, ANOVA).
Plasmids were transfected with TurboFect transfection reagent (Thermo Scientific). SEAP and luciferase activities in culture supernatants were quantitated using a Ziva® Ultra SEAP Plus Detection Kit (Jaden BioScience) and a Gaussia Luciferase Glow Assay Kit (Thermo Scientific), respectively. Luminescence signals were measured by a VICTORS Multilabel plate reader (PerkinElmer).

Hsp genes = assay: qRT-PCR of heat-shock-induced Hsp mRNA in NIH3T3 cells; assay type: cell-based, mouse; details: 20 μM U0126 or 20 nM AZD6244 for 3 hr, then HS and 4-hr recovery
Description: (A) NIH3T3 cells were treated with HS at 43° C. for 30 min, 10 μM tubastatin A for 5 hr, 40 μM VER155008 for 1 hr, 500 nM MG132 for 1 hr, 200 nM 17-DMAG for 1 hr, and 2.5 mM azetidine for 15 min (B) The dual ELK1 reporter system, comprising a serum response element (SRE)-driven secreted embryonic alkaline phosphatase (SEAP) plasmid and a CMV-driven Gaussia luciferase (GLuc) plasmid, was transfected into HEK293T cells. After 24 hr, cells were treatments as in (A) and recovered overnight before measuring reporter activities (mean±SD, n=6, ANOVA). (C and D) NIH3T3 cells were treated with 20 μM U0126 or 20 nM AZD6244 for 3 hr followed by HS and 4-hr recovery. mRNA levels were quantitated by qRT-PCR (mean±SD, n=3, Student's t-test). (E) Immediately after HS, nuclear proteins of NIH3T3 cells treated as in (C) were extracted to measure HSF1-DNA binding by an ELISA-based assay (mean±SD, n=3, ANOVA). […]
Total RNAs were extracted using RNA STAT-60 reagent (Tel-Test, Inc.), and RNAs were used for reverse transcription using a Verso cDNA Synthesis kit (Thermo Fisher Scientific). Equal amounts of cDNA were used for quantitative PCR reaction using a DyNAmo SYBR Green qPCR kit (Thermo Fisher Scientific). Signals were detected by an ABI 7500 Real-Time PCR System (Applied Biosystems). […]

HSF1 Ser326 [4] = assay: HSF1 Ser326 phosphorylation by immunoblotting in HEK293T cells; assay type: cell-based; details: overnight, 20 μM U0126, 20 nM AZD6244, 1 μM FR180204 or 100 nM Sch772984
Description: This figure is related to FIG. 3. (A) Validation of phospho-HSF1 Ser326 antibodies. […] (B) MEK blockade impairs HSF1 Ser326 phosphorylation. […] (D-E) S326A mutation impairs HSF1 nuclear translocation. […] (F) Acute MEK depletion diminishes HSF1 proteins. […] HSF1 proteins were detected by immunoblotting. (G) ERK-mediated HSF1 Ser307 phosphorylation depends on MEK. […] Levels of phosphor-HSF1 Ser307 were measured by immunoblotting. (H) HSF1 Ser326 phosphorylation inhibits Ser307 phosphorylation.

HSF1 [5] = assay: ELISA-based HSF1-DNA binding assay, NIH3T3 nuclear proteins; assay type: cell-based, mouse; details: NIH3T3, immediately after HS; 20 μM U0126 or 20 nM AZD6244 for 3 hr
Description: (A) NIH3T3 cells were treated with HS at 43° C. for 30 min, 10 μM tubastatin A for 5 hr, 40 μM VER155008 for 1 hr, 500 nM MG132 for 1 hr, 200 nM 17-DMAG for 1 hr, and 2.5 mM azetidine for 15 min (B) The dual ELK1 reporter system, comprising a serum response element (SRE)-driven secreted embryonic alkaline phosphatase (SEAP) plasmid and a CMV-driven Gaussia luciferase (GLuc) plasmid, was transfected into HEK293T cells. After 24 hr, cells were treatments as in (A) and recovered overnight before measuring reporter activities (mean±SD, n=6, ANOVA). (C and D) NIH3T3 cells were treated with 20 μM U0126 or 20 nM AZD6244 for 3 hr followed by HS and 4-hr recovery. mRNA levels were quantitated by qRT-PCR (mean±SD, n=3, Student's t-test). (E) Immediately after HS, nuclear proteins of NIH3T3 cells treated as in (C) were extracted to measure HSF1-DNA binding by an ELISA-based assay (mean±SD, n=3, ANOVA). (F) HEK293T cells were transfected with dual HSF1 reporter plasmids, a heat-shock element (HSE)-driven SEAP plasmid and a CMV-GLuc plasmid. […] (G) HEK293T cells were treated with different inhibitors overnight. […] After 24 hr, cells were heat shocked at 43° C. for 30 min followed by overnight recovery (mean±SD, n=3, ANOVA). (L)-(O) HEK293T cells were transfected with siRNAs for 48 hr followed by transfection with dual HSF1 reporter plasmids for 24 hr before HS (mean±SD, n=6, ANOVA). […]

[6] = test system: ERK complexes precipitated from HEK293T cells; assay: In vitro kinase assay with immunoprecipitated ERK complexes; assay type: biochemical
Description: (§1) Co-expressed GFP proteins served as internal controls. […] See also FIG. 10.
(§2) Samples were boiled for 5 min to stop reactions.

MEK1 = MEK1 (Homo sapiens, UniProt Q02750); details: 100 ng GST-MEK1, 400 ng His-HSF1, RT
Chain of MEK1 (Q02750 whole entry): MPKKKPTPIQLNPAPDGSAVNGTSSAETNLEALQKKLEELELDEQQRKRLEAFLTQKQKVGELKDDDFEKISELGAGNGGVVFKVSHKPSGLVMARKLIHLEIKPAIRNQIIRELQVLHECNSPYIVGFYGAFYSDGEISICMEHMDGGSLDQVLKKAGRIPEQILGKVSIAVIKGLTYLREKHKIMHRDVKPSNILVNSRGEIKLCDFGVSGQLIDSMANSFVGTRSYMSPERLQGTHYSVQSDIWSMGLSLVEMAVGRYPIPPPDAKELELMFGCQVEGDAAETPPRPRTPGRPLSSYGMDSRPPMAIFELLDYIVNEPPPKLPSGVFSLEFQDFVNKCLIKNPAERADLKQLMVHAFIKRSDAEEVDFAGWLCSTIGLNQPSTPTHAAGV
Description: as §1, §2

| SMILES | V5-RPL15 depletion by AZD6244 [1] | depletions of endogenous RPL15 and RPL3 by AZD6244 (c-MYC, RPL15, RPL3) | HSF1 Ser326 phosphorylation (HSF1 Ser326 [2]) | transcriptional activation of HSF1 (HSF1 [3]) | HS-induced transcription of Hsp genes (Hsp genes) | HSF1 Ser326 phosphorylation (HSF1 Ser326 [4]) | DNA-binding capacity of HSF1 (HSF1 [5]) | phosphorylation of recombinant ERK1 proteins by precipitated ERK complexes ([6]; 400 ng GST-ERK1) | HSF1 Ser326 phosphorylation by precipitated ERK complexes ([6]; 400 ng His-HSF1) | HSF1 Ser326 phosphorylation by recombinant MEK1 (MEK1) |
| --- | --- | --- | --- | --- | --- | --- | --- | --- | --- | --- |
| CC(C)C[C@@H](C=O)NC(=O)[C@H](CC(C)C)NC(=O)[C@H](CC(C)C)NC(=O)OCc1ccccc1 [MG132] (Cbz-Leu-Leu-Leu-aldehyde) | prevented | prevented |  |  |  |  |  |  |  |  |
| N#CC(=C(/N)Sc1ccccc1N)/C(C#N)=C(\N)Sc1ccccc1N [U0126] |  |  | impaired | impaired | impeded | impairs | impaired | blocked | blocked | blocked |
